According to ChEMBL document CHEMBL4420067, “Inhibitors of alpha-amino-beta-carboxymuconic acid semialdehyde decarboxylase” (2018):

Biological target: 2-amino-3-carboxymuconate-6-semialdehyde decarboxylase (Homo sapiens, UniProt Q8TDX5)
Assay: Inhibition of human recombinant ACMSD1 expressed in Escherichia coli BL21 (DE3) cells assessed as reduction in conversion of 3-OH-anthranilic acid into ACMS by spectrophotometry

2-amino-3-carboxymuconate-6-semialdehyde decarboxylase, sequence (Q8TDX5 whole entry): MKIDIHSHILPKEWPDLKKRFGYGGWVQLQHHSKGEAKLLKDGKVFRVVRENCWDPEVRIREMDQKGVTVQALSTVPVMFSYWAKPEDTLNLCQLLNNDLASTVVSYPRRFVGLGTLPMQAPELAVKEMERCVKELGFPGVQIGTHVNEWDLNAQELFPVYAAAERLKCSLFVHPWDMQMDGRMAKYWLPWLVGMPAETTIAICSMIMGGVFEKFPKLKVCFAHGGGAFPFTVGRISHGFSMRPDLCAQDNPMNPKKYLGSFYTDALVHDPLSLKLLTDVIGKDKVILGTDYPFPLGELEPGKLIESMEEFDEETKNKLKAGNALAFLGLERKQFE

SMILES	IC50 [nM]
CCOc1cccc(/C=C/c2[nH]c(=S)[nH]c(=O)c2C#N)c1OCC(=O)O	> 100
N#Cc1c(/C=C/c2cccc(O)c2O)[nH]c(=S)[nH]c1=O	> 100
COc1cccc(/C=C/c2[nH]c(=S)[nH]c(=O)c2C#N)c1OCC(=O)O	> 100
COc1cccc(/C=C/c2[nH]c(=O)[nH]c(=O)c2[N+](=O)[O-])c1OCC(=O)O	> 100
N#Cc1c(/C=C/c2ccccc2-c2cc(F)c(O)c(F)c2)[nH]c(=S)[nH]c1=O	> 100
